“And” between values parts separate entries of the source, which are not always exact repeats. Identical values can stand only once.
Key:
human dermal fibroblasts [1] = test: Exposure to Cd(II), fibroblast survival; format: cell-based
human dermal fibroblasts [2] = test: Exposure to As(III) (sodium arsenite), fibroblast survival; format: cell-based; conditions: 9 mM sodium arsenite, 24 hours, no EDA
Method: Deschampsia antarctica extract (EDA): In experiments with fibroblasts, lyophilized EDA batch 051214 was used. The product was dissolved in a complete DMEM medium at a concentration of 5 mg/ml, stirred in a magnetic stirrer for 30 minutes and filtered through a 0.2 μm sterile cellulose acetate filter (Minisart, Sartorius).
As(III): sodium arsenite (NaAsO2) at a final concentration of 9 mM was dissolved in phenol red-free DMEM medium and filtered through a 0.2 μm sterile cellulose acetate filter (Minisart, Sartorius).
The cells used were human dermal fibroblasts isolated from the outer area of the retroauricular flap obtained from different healthy voluntary donors and preserved in liquid N2. The experiments used cells grown in culture flasks containing DMEM supplemented with 2 mM glutamine, […], 10% fetal bovine serum, in a Heraeus oven with an atmosphere of 7% CO2 and 93% humidified air at 37° C., until reaching about 90% of confluence, after which a new pass was performed by means of trypsinization. […]
The plates were washed twice with Hank's. […] It was carefully stirred in a plate stirrer and the absorbance at 550 nm was read in a BMG Fluostar Optima spectrophotometer.

| Compound | Survival % (human dermal fibroblasts [1]; 3 μM Cd, 24 hours, no EDA) | Survival x (human dermal fibroblasts [1]; 3 μM Cd, 24 hours, no EDA) | mortality (human dermal fibroblasts [1]; Cd(II) at 3 μM (FIG. 7)) | Survival % (vs CC) (human dermal fibroblasts [2]) | Survival x (human dermal fibroblasts [2]) |
| --- | --- | --- | --- | --- | --- |
| [Cl][Cd][Cl] [Cd, cadmium chloride] | 54.9% | 0.188 u abs | about 50% |  |  |
| O=[As]O [sodium arsenite] |  |  |  | 42.0% and 54.6% and 46.4% | 0.209 u abs and 0.206 u abs and 0.334 u abs |
